For this test, the target named is T1, hM2 receptor (CHO-K1 cells) (Homo sapiens, UniProt P08172).
T1 construct: expressed in transfected cells; host or cells: CHO-K1 cells
T1 sequence (P08172 1-466): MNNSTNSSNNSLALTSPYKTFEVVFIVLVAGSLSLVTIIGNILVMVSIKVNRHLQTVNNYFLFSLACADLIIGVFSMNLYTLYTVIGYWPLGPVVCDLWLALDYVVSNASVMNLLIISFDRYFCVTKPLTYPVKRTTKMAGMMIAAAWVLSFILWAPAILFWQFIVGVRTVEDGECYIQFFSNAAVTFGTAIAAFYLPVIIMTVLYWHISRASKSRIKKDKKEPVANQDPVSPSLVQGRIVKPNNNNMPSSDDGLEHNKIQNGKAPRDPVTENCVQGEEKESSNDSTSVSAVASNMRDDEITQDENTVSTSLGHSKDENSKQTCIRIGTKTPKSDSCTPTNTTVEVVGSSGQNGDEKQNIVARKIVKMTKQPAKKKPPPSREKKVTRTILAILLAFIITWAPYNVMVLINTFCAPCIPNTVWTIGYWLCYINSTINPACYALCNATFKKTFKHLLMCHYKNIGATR
The test is described as follows: Blockade of agonist-mediated inhibition of cAMP accumulation. Type of test: cell-based. Particulars: CHO-K1 cells expressing the hM2 receptor; read-out: Ki value for blockade of oxotremorine-inhibition of forskolin-mediated cAMP accumulation. How it is done:
A. Blockade of Agonist-Mediated Inhibition of cAMP Accumulation
In this assay, the functional potency of a test compound was determined by measuring the ability of the test compound to block oxotremorine-inhibition of forskolin-mediated cAMP accumulation in CHO-K1 cells expressing the hM2 receptor.
cAMP assays were performed in a radioimmunoassay format using the Flashplate Adenylyl Cyclase Activation Assay System with ^125I-cAMP (NEN SMP004B, PerkinElmer Life Sciences Inc., Boston, Mass.), according to the manufacturer's instructions.
Cells were rinsed once with dPBS and lifted with Trypsin-EDTA solution (0.05% trypsin/0.53 mM EDTA) as described in the Cell Culture and Membrane Preparation section above. […] The cell pellet was then re-suspended in 10 mL dPBS, and the cells were counted with a Coulter Z1 Dual Particle Counter (Beckman Coulter, Fullerton, Calif.). […]
Reactions were incubated for 10 minutes at 37° C. and stopped by addition of 100 μL ice-cold detection buffer. Plates were sealed, incubated overnight at room temperature and counted the next morning on a PerkinElmer TopCount liquid scintillation counter (PerkinElmer Inc., Wellesley, Mass.). The amount of cAMP produced (pmol/well) was calculated based on the counts observed for the samples and cAMP standards, as described in the manufacturer's user manual. […]
In general terms: Changes in cAMP serve as a functional read-out for many G protein-coupled receptors.

The Ki is a dissociation constant, usually derived from enzyme kinetics or from competition with a known ligand.

In the case of `CNCC(=O)NCCCCCN1CC[C@@H](C(C(N)=O)(c2ccccc2)c2ccccc2)C1` [Example 1], the Ki was < 100 nM.

The values above are taken from patent US7208515B2, “Diphenylmethyl compounds useful as muscarinic receptor antagonists” (Theravance, Inc., priority 2004, dated 2007).
